In patent US8084630B2, “Process for the synthesis of ramelteon and its intermediates” (Teva Pharmaceutical Industries Ltd., priority 2007, dated 2011):
Values joined by “and” are separate entries in the source; they are usually repeats but may differ in a detail not shown here. Identical values can stand only once. Like-named read-outs stand apart in the source and are kept apart here.

Tests used:
[1] = Electrostatic charge measurement (shaking can, Faraday cup); assay type: physicochemical; conditions: for Average Charge Density of Batch: 3 samples; for Calculated Charge Density: shaken 90 seconds
From the text: Electrostatic Charge Measurement
Equipment and Accessories
Electrical Shaker—Scientific Industries type Vortex-2 Genie (including specific holder for the shaking cans).
Electrostatic Charge Meter—Monroe Electronics type Nanocoulomb Meter 253 (Faraday Cup).
Metal shaking can, S.S. 316, 30×50_mm.
Plastic shaking can, Perspex, 30×50_mm.
Description of Test Procedure
Calibration of the Electrostatic Charge Meter, prior the test according to manufacturer's procedure.
6 sample cans were used for each batch.
The shaking can placed in flat dish, the sample cam was opened and the powder was manually poured into the shaking can.
The shaking can was hermetically closed by plastic cover and mounted in the holder.
The electrical shaker was operated for 90 seconds, at maximum rate.
Subsequent of the shaking period the shaking can was moved into the flat dish, the cover was removed and the powder was manually poured into a glass can within the Faraday-Cup. Some of the powder was transferred by gravitational pouring (90-99%), the rest was transferred by manually push using wooden spatula (with strict adherence to tender motion).
The Faraday-Cup was closed and the charge reading (in meter display) was recorded. The described test stages were equally conducted on the selected 6 samples of each batch, as follow: 3 powder samples were shaken in metal can, 3 powder samples were shaken in plastic can. All the samples were shaken in each can for the same time period of 90 seconds.

[2] = Flowability, FT4 Powder Rheometer (REP+VFR); assay type: physicochemical; conditions: 25 mm blade, 25 ml vessel; for BFE (Basic Flow Energy = Energy Test 7): tipspeed 100 mm/s
Method: Instrument: FT4 Powder Rheometer (Freeman Technology Ltd).
Methodology: The blade was rotated and simultaneously moved axially into a powder sample whist axial force and rotational forces are measured.
The 25 mm blade and a 25 ml split borosilicate test vessel were used.
The Stability and Variable Flow Rate programs were run together by combining the two methods into one program (REP+VFR). The REP+VFR study is a combination of the seven conditioning and test cycles (blade tipspeed is 100 mm/s) at constant speed and the four conditioning and test cycles (blade tipspeed is 100, 70, 40 and 10 mm/s, respectively) with decreasing in blade speed. Definitions of the Flow Parameters:
Basic Flow Energy (BFE)=Energy Test 7, mJ
Stability index (SI)=Energy test 7/Energy Test 1

[3] = target: T1, MT3 receptor (Homo sapiens, UniProt P16083); conditions: cited from earlier work
T1 sequence (P16083 1-231): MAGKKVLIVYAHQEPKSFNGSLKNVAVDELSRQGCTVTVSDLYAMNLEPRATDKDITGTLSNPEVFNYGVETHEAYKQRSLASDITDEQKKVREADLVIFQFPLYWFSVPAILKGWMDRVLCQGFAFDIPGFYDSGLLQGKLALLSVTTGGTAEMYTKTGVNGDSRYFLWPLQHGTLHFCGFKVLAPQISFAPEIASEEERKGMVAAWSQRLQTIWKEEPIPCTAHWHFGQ

[4] = cited from earlier work
[5] = target: T2, melatonin MT2 receptor (Homo sapiens, UniProt P49286); conditions: cited from earlier work
T2 sequence (P49286 1-362): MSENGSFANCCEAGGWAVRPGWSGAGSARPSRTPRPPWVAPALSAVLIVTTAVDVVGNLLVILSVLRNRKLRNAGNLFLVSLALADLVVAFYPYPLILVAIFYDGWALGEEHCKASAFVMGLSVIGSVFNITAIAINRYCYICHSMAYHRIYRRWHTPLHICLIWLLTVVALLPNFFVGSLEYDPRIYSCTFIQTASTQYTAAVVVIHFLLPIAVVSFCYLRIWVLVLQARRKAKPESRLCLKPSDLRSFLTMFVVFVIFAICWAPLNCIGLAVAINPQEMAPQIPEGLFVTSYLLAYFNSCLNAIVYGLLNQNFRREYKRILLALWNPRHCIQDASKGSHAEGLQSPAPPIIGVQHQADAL

[6] = target: melatonin MT1 receptor (Homo sapiens, UniProt P48039); conditions: cited from earlier work
Sequence of melatonin MT1 receptor (P48039 whole entry): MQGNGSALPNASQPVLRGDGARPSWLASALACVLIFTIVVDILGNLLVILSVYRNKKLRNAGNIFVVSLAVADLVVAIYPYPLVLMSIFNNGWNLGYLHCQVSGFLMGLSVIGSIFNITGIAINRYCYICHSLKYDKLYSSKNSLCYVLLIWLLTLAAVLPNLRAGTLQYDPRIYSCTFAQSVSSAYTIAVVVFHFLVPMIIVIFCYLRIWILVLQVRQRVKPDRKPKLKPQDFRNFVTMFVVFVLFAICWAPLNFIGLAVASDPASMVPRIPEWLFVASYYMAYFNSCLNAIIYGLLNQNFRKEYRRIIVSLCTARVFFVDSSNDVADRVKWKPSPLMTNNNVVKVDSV

| average charge density relative to sample obtained from Toluene ([1]; metal can) | Average Charge Density of Batch ([1]; metal can) [nC/gr] | Calculated Charge Density ([1]; metal can) | average charge density relative to sample obtained from Toluene ([1]; plastic can) | Average Charge Density of Batch ([1]; plastic can) [nC/gr] | Calculated Charge Density ([1]; plastic can) | SI (Stability index = Energy test 7/Energy Test 1) [2] | BFE (Basic Flow Energy = Energy Test 7) ([2]; listed as Sample from Ethylacetate) [mJ] | BFE (Basic Flow Energy = Energy Test 7) ([2]; listed as Sample from Toluene) [mJ] | SI (Stability index = Energy test 7/Energy Test 1) ([2]; listed as Sample from Toluene) | Compound | selectivity over the MT3 receptor [3] | solubility ([4]; 1-octanol) | solubility ([4]; DMSO) | solubility ([4]; aqueous buffer) | solubility ([4]; ethanol) | solubility ([4]; methanol) | solubility ([4]; water) | affinity for melatonin MT2 receptor [5] | affinity for melatonin MT1 receptor [6] |
| --- | --- | --- | --- | --- | --- | --- | --- | --- | --- | --- | --- | --- | --- | --- | --- | --- | --- | --- | --- |
| about 12 times | 9.63 | 8.8 nC/gr and 10.1 nC/gr and 10.0 nC/gr | about 15 times | 10.82 | 10.1 nC/gr and 14.05 nC/gr and 8.3 nC/gr | 0.622 | 181 |  |  | CCC(=O)NCC[C@@H]1CCc2ccc3c(c21)CCO3 [Ethyl Acetate, ramelteon] |  |  |  |  |  |  |  |  |  |
|  |  |  |  |  |  |  |  |  |  | CCC(=O)NCC[C@@H]1CCc2ccc3c(c21)CCO3 [Ramelteon, (S)—N-[2-(1,6,7,8-tetrahydro-2H-indeno-[5,4-b]furan-8-yl)ethyl]propionamide] | selectivity over the MT3 receptor | freely soluble | freely soluble | highly soluble | freely soluble | freely soluble | highly soluble | high affinity | high affinity |
|  | 0.82 |  |  | 0.72 | 0.85 nC/gr and 0.6 nC/gr and 0.7 nC/gr |  |  | 92.5 | 1.02 | CCC(=O)NCC[C@@H]1CCc2ccc3c(c21)CCO3 [Toluene, ramelteon] |  |  |  |  |  |  |  |  |  |
